Results from PubChem BioAssay (NCI).
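Test compounds were applied to cells in 96-well plates for 48 hours at 5 doses. The concentration for full growth arrest is given as TGI.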

Columns and labels:
Test in all cases: NCI tumour cell line growth inhibition, 48 h
SF-539 CNS = system: SF-539 CNS
M14 melanoma = system: M14 melanoma
A549 NSCLC = system: A549 NSCLC
HOP-62 NSCLC = system: HOP-62 NSCLC
SNB-19 CNS = system: SNB-19 CNS
SK-MEL-5 melanoma = system: SK-MEL-5 melanoma
UACC-62 melanoma = system: UACC-62 melanoma
ACHN renal = system: ACHN renal
CCRF-CEM leukemia = system: CCRF-CEM leukemia
OVCAR-4 ovarian = system: OVCAR-4 ovarian
MDA-MB-435 = system: MDA-MB-435
MDA-MB-231 breast = system: MDA-MB-231 breast
HOP-92 NSCLC = system: HOP-92 NSCLC
KM12 colon = system: KM12 colon
CAKI-1 renal = system: CAKI-1 renal
K-562 leukemia = system: K-562 leukemia
SF-295 CNS = system: SF-295 CNS
U251 CNS = system: U251 CNS
COLO 205 colon = system: COLO 205 colon
SN12C renal = system: SN12C renal
UACC-257 melanoma = system: UACC-257 melanoma
NCI-H23 lung = system: NCI-H23 lung
NCI-H460 lung = system: NCI-H460 lung
HT29 colon = system: HT29 colon
SW-620 colon = system: SW-620 colon
DU-145 prostate = system: DU-145 prostate
NCI-H522 lung = system: NCI-H522 lung
HCT-116 colon = system: HCT-116 colon
HL-60(TB) leukemia = system: HL-60(TB) leukemia
SK-MEL-2 melanoma = system: SK-MEL-2 melanoma
PC-3 prostate = system: PC-3 prostate
MOLT-4 leukemia = system: MOLT-4 leukemia
HCT-15 colon = system: HCT-15 colon
UO-31 renal = system: UO-31 renal
T-47D breast = system: T-47D breast
SK-OV-3 ovarian = system: SK-OV-3 ovarian
LOX IMVI melanoma = system: LOX IMVI melanoma
BT-549 breast = system: BT-549 breast
TK-10 renal = system: TK-10 renal
A498 renal = system: A498 renal
SR leukemia = system: SR leukemia
MCF7 breast = system: MCF7 breast
OVCAR-8 ovarian = system: OVCAR-8 ovarian
HCC-2998 colon = system: HCC-2998 colon
NCI-H226 lung = system: NCI-H226 lung
MALME-3M melanoma = system: MALME-3M melanoma
EKVX NSCLC = system: EKVX NSCLC
NCI/ADR-RES ovarian = system: NCI/ADR-RES ovarian
786-0 renal = system: 786-0 renal
SK-MEL-28 melanoma = system: SK-MEL-28 melanoma
SNB-75 CNS = system: SNB-75 CNS
RXF 393 renal = system: RXF 393 renal
MDA-N = system: MDA-N
OVCAR-3 ovarian = system: OVCAR-3 ovarian
IGROV1 ovarian = system: IGROV1 ovarian
OVCAR-5 ovarian = system: OVCAR-5 ovarian
RPMI-8226 leukemia = system: RPMI-8226 leukemia

`COc1ccc(NC(C)=O)cc1N1C(=O)/C(=C\c2cccc(Oc3ccccc3)c2)S(=O)(=O)C1c1ccccc1` (configuration not stated) was tested, and the TGI (SF-539 CNS) was 74.6 µM, the TGI (M14 melanoma) was greater than 100 µM and the TGI (A549 NSCLC) was greater than 100 µM. It also gave a TGI (HOP-62 NSCLC) greater than 100 µM, a TGI (SNB-19 CNS) greater than 100 µM and a TGI (SK-MEL-5 melanoma) greater than 100 µM. The TGI (UACC-62 melanoma) was greater than 100 µM, the TGI (ACHN renal) was greater than 100 µM and the TGI (CCRF-CEM leukemia) was 83.8 µM. The TGI (OVCAR-4 ovarian) was greater than 100 µM, the TGI (MDA-MB-435) was greater than 100 µM and the TGI (MDA-MB-231 breast) was greater than 100 µM. For the same molecule, the TGI (HOP-92 NSCLC) was greater than 100 µM, the TGI (KM12 colon) was greater than 100 µM and the TGI (CAKI-1 renal) was 44.8 µM. The TGI (K-562 leukemia) was 68.9 µM, the TGI (SF-295 CNS) was greater than 100 µM and the TGI (U251 CNS) was greater than 100 µM. The TGI (COLO 205 colon) was greater than 100 µM, the TGI (SN12C renal) was 73 µM and the TGI (UACC-257 melanoma) was greater than 100 µM. It also gave a TGI (NCI-H23 lung) greater than 100 µM, a TGI (NCI-H460 lung) greater than 100 µM and a TGI (HT29 colon) of 43.7 µM. For the same molecule, the TGI (SW-620 colon) was greater than 100 µM, the TGI (DU-145 prostate) was greater than 100 µM and the TGI (NCI-H522 lung) was greater than 100 µM. It also gave a TGI (HCT-116 colon) of 31.3 µM, a TGI (HL-60(TB) leukemia) of 40.5 µM and a TGI (SK-MEL-2 melanoma) greater than 100 µM. The TGI (PC-3 prostate) was greater than 100 µM, the TGI (MOLT-4 leukemia) was 59 µM and the TGI (HCT-15 colon) was greater than 100 µM. It also gave a TGI (UO-31 renal) greater than 100 µM, a TGI (T-47D breast) greater than 100 µM and a TGI (SK-OV-3 ovarian) greater than 100 µM. The TGI (LOX IMVI melanoma) was greater than 100 µM, the TGI (BT-549 breast) was greater than 100 µM and the TGI (TK-10 renal) was greater than 100 µM. The TGI (A498 renal) was greater than 100 µM, the TGI (SR leukemia) was 23.9 µM and the TGI (MCF7 breast) was greater than 100 µM. The TGI (OVCAR-8 ovarian) was greater than 100 µM, the TGI (HCC-2998 colon) was greater than 100 µM and the TGI (NCI-H226 lung) was greater than 100 µM. For the same molecule, the TGI (MALME-3M melanoma) was greater than 100 µM, the TGI (EKVX NSCLC) was greater than 100 µM and the TGI (NCI/ADR-RES ovarian) was greater than 100 µM. The TGI (786-0 renal) was greater than 100 µM, the TGI (SK-MEL-28 melanoma) was greater than 100 µM and the TGI (SNB-75 CNS) was greater than 100 µM. For the same molecule, the TGI (RXF 393 renal) was greater than 100 µM, the TGI (MDA-N) was 53.6 µM and the TGI (OVCAR-3 ovarian) was greater than 100 µM. The TGI (IGROV1 ovarian) was greater than 100 µM, the TGI (OVCAR-5 ovarian) was greater than 100 µM and the TGI (RPMI-8226 leukemia) was 73.6 µM.
